Laboratory results published in patent US20220242846A1, “ISOINDOLINONE COMPOUNDS” (Monte Rosa Therapeutics AG, priority 2019, published 2022).

target: GSPT1 (Homo sapiens, UniProt P15170+Q96SW2); assay: Immunofluorescence assay for GSPT1 degradation in CAL-51 cells; format: cell-based; parameters: CAL-51 cells were purchased from DSMZ (cat. Number ACC302); endogenous in cells; host or cells: CAL-51 (DSMZ ACC302); conditions: compound treatment 6 hours, read-out: Code: activity for GSPT1 degradation (DC50)
Sequence (P15170 whole entry): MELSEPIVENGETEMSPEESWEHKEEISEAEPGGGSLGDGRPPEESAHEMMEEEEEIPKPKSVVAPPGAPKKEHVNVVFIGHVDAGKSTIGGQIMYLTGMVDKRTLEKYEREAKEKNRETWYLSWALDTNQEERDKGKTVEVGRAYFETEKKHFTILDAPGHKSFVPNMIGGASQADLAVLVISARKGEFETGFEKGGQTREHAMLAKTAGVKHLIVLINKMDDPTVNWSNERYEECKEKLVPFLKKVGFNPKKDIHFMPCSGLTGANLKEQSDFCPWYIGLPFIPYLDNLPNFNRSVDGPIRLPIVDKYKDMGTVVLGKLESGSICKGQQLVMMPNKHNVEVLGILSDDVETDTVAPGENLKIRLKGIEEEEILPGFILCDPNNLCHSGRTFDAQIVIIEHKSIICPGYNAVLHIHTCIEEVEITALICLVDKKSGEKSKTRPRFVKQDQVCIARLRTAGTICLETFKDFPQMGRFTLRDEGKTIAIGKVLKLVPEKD
Sequence (Q96SW2 whole entry): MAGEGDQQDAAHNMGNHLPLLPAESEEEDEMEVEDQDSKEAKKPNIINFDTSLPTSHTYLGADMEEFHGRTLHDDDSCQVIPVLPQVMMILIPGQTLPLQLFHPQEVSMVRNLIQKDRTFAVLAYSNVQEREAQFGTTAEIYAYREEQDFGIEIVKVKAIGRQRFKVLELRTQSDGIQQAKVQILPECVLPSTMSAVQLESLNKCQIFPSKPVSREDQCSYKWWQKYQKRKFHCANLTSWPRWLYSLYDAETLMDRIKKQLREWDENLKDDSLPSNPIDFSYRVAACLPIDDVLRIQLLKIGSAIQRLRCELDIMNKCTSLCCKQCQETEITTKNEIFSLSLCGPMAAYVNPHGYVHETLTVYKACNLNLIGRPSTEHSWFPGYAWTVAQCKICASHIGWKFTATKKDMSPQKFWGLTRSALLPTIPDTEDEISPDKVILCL
Sequence (Q16531 2-1140 partner limits assumed): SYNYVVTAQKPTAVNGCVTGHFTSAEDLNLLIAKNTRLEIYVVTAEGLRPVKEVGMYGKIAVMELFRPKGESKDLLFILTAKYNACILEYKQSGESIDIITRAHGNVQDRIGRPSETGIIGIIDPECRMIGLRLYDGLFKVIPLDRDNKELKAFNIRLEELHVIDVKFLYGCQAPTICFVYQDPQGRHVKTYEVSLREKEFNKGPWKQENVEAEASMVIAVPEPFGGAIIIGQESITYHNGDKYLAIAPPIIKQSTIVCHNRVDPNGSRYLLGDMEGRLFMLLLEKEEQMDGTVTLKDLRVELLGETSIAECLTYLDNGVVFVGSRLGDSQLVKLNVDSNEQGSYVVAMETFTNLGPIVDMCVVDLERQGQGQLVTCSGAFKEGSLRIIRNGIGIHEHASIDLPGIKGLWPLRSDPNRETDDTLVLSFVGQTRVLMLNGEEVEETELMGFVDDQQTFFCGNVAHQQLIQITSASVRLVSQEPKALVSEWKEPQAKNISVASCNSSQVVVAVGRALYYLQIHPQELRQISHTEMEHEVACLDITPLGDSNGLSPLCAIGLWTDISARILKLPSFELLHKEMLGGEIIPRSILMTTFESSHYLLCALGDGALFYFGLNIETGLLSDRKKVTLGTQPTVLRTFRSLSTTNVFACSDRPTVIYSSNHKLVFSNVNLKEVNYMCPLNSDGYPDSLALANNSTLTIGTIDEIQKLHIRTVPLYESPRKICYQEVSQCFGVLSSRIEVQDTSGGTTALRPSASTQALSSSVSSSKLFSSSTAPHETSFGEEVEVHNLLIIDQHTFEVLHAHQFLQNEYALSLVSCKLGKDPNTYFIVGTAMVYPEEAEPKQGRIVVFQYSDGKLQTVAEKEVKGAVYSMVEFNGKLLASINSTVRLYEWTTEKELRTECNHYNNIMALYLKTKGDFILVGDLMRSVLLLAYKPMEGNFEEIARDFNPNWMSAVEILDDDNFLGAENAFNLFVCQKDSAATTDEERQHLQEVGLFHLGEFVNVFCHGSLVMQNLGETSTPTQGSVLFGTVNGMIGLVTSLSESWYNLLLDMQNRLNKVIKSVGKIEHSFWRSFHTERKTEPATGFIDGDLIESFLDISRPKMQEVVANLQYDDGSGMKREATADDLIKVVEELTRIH
Procedure, shortened: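 CAL-51 cells on fibronectin-coated plates treated 6 h with compound (30 μM to 0.1 nM); fixed, stained with anti-GSPT1/Alexa-488, phalloidin and DAPI, imaged by high-content microscopy. Mean GSPT1 intensity per cell normalized to controls; DC50 by non-linear regression.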

Row | Structure (SMILES) | DC50 [nM]
1 | COCCNC(=O)NCc1ccc2c(c1)C(=O)N(C1CCC(=O)NC1=O)C2 (centres unmarked) [Compound 72] | > 300
2 | O=C1CCC(N2Cc3ccc(CNC(=O)Nc4cccc(Cl)c4F)cc3C2=O)C(=O)N1 (centres unmarked) [Compound 33] | ≤ 100
3 | Cc1cccc(NC(=O)NCc2ccc3c(c2)C(=O)N(C2CCC(=O)NC2=O)C3)c1C (centres unmarked) [Compound 44] | > 300
4 | O=C1CCC(N2Cc3ccc(CNC(=O)Nc4cccc(F)c4)cc3C2=O)C(=O)N1 (centres unmarked) [Compound 34] | > 300
5 | O=C1CCC(N2Cc3ccc(CNC(=O)NCc4ccccc4)cc3C2=O)C(=O)N1 (centres unmarked) [Compound 24] | > 300
6 | O=C1CCC(N2Cc3ccc(CNC(=O)Nc4ccc(Cl)cc4)cc3C2=O)C(=O)N1 (centres unmarked) [Compound 2] | > 300
7 | Cc1ccccc1NC(=O)NCc1ccc2c(c1)C(=O)N(C1CCC(=O)NC1=O)C2 (centres unmarked) [Compound 37] | > 300
8 | Cc1cccc(CNC(=O)NCc2ccc3c(c2)C(=O)N(C2CCC(=O)NC2=O)C3)c1 (centres unmarked) [Compound 63] | > 300
9 | O=C1CCC(N2Cc3ccc(CNC(=O)NCC4CCCCC4)cc3C2=O)C(=O)N1 (centres unmarked) [Compound 58] | > 300
10 | COc1cccc(CNC(=O)NCc2ccc3c(c2)C(=O)N(C2CCC(=O)NC2=O)C3)c1 (centres unmarked) [Compound 53] | > 300

tested on: Human mammary epithelial cells (HMEC) engineered to express c-myc tagged with EGFP; assay: 3D spheroid assay, myc-HMEC (CellTiterGlo3D viability); format: cell-based; conditions: Homo sapiens, HMEC, 120 h, 3D spheroids, 5 days with compound, read-out: Code: EC50 value in the myc-HMEC assay
Protocol: (§1) 3D Spheroid Experiments—HMEC
(§2) Human mammary epithelial cells (HMEC) were engineered to express either c-myc tagged with EGFP or EGFP alone (non myc) (analogous but distinct from Kessler J D et al, Science. 2012 Jan. 20; 335(6066):348-53. doi: 10.1126/science.1212728; Hsu T Y et al, Nature. 2015 Sep. 17; 525(7569):384-8. doi: 10.1038/nature14985). The engineered cells were seeded at 1000 (myc) or 4000 (non myc) cells/well in a 384 ultra-low attachment plate in a total volume of 40 µL, HMEC cell culture media (DMEM/F12+10% HI-FBS+15 mM HEPES+0.5 ug/ml Hydrocortisone+10 ug/ml Insulin+20 ng/ml EGF). Plates were spun at 1200 rpm for 5 minutes at room temperature to ensure that cells have gathered in the middle of the well and incubated at 37° C. for 48 hrs before firing with compounds. On Day 2 (48 h post seeding) cells were imaged (brightfield and EGFP fluorescence) using the Celigo imaging cytometer prior to firing compounds. For primary screens, compounds were added at three concentrations (1.25, 10 and 30 uM) in a volume of 120 nL using the ECHO acoustic dispenser and spun at 2000 rpm for 2 minutes at room temperature before incubating at 37° C. for 5 days. […] On Day 7, prior to measuring cell viability using CellTiterGlo3D, cells were imaged (brightfield and EGFP fluorescence) on the Celigo imaging cytometer. The CellTiterGlo3D reagent is added at 30uL/well and incubated at room temperature for 30mins After 30mins of incubation, luminescence readings were recorded using the Perkin Elmer EnVision reader.

Row | Structure (SMILES) | EC50 [nM]
11 | COCCNC(=O)NCc1ccc2c(c1)C(=O)N(C1CCC(=O)NC1=O)C2 (centres unmarked) [Compound 72] | > 2000
12 | O=C1CCC(N2Cc3ccc(CNC(=O)Nc4cccc(Cl)c4F)cc3C2=O)C(=O)N1 (centres unmarked) [Compound 33] | ≤ 400
13 | Cc1cccc(NC(=O)NCc2ccc3c(c2)C(=O)N(C2CCC(=O)NC2=O)C3)c1C (centres unmarked) [Compound 44] | > 2000
14 | O=C1CCC(N2Cc3ccc(CNC(=O)Nc4cccc(F)c4)cc3C2=O)C(=O)N1 (centres unmarked) [Compound 34] | > 2000
15 | O=C1CCC(N2Cc3ccc(CNC(=O)NCc4ccccc4)cc3C2=O)C(=O)N1 (centres unmarked) [Compound 24] | > 2000
16 | O=C1CCC(N2Cc3ccc(CNC(=O)Nc4ccc(Cl)cc4)cc3C2=O)C(=O)N1 (centres unmarked) [Compound 2] | > 2000
17 | Cc1ccccc1NC(=O)NCc1ccc2c(c1)C(=O)N(C1CCC(=O)NC1=O)C2 (centres unmarked) [Compound 37] | > 2000
18 | Cc1cccc(CNC(=O)NCc2ccc3c(c2)C(=O)N(C2CCC(=O)NC2=O)C3)c1 (centres unmarked) [Compound 63] | > 2000
19 | O=C1CCC(N2Cc3ccc(CNC(=O)NCC4CCCCC4)cc3C2=O)C(=O)N1 (centres unmarked) [Compound 58] | > 2000
20 | COc1cccc(CNC(=O)NCc2ccc3c(c2)C(=O)N(C2CCC(=O)NC2=O)C3)c1 (centres unmarked) [Compound 53] | > 2000

same assay, conditions: myc-HMEC 3D spheroids (compounds with code D and E), 5 days, read-out: EC50

Row | Structure (SMILES) | EC50 [nM]
21 | O=C1CCC(N2Cc3ccc(CNC(=O)Nc4cccc(Cl)c4F)cc3C2=O)C(=O)N1 (centres unmarked) [Compound 33] | 250

tested on: Human mammary epithelial cells (HMEC) engineered to express EGFP alone (non myc); assay: 3D spheroid assay, non myc-HMEC (CellTiterGlo3D viability); format: cell-based; conditions: 120 h, 3D spheroids, 5 days with compound, read-out: Code: EC50 value in the non myc-HMEC assay
Protocol: as §1, §2

Row | Structure (SMILES) | EC50 [nM]
22 | COCCNC(=O)NCc1ccc2c(c1)C(=O)N(C1CCC(=O)NC1=O)C2 (centres unmarked) [Compound 72] | > 10000
23 | O=C1CCC(N2Cc3ccc(CNC(=O)Nc4cccc(Cl)c4F)cc3C2=O)C(=O)N1 (centres unmarked) [Compound 33] | > 10000
24 | Cc1cccc(NC(=O)NCc2ccc3c(c2)C(=O)N(C2CCC(=O)NC2=O)C3)c1C (centres unmarked) [Compound 44] | > 10000
25 | O=C1CCC(N2Cc3ccc(CNC(=O)Nc4cccc(F)c4)cc3C2=O)C(=O)N1 (centres unmarked) [Compound 34] | > 10000
26 | O=C1CCC(N2Cc3ccc(CNC(=O)NCc4ccccc4)cc3C2=O)C(=O)N1 (centres unmarked) [Compound 24] | > 10000
27 | O=C1CCC(N2Cc3ccc(CNC(=O)Nc4ccc(Cl)cc4)cc3C2=O)C(=O)N1 (centres unmarked) [Compound 2] | > 10000
28 | Cc1ccccc1NC(=O)NCc1ccc2c(c1)C(=O)N(C1CCC(=O)NC1=O)C2 (centres unmarked) [Compound 37] | > 10000
29 | Cc1cccc(CNC(=O)NCc2ccc3c(c2)C(=O)N(C2CCC(=O)NC2=O)C3)c1 (centres unmarked) [Compound 63] | > 10000
30 | O=C1CCC(N2Cc3ccc(CNC(=O)NCC4CCCCC4)cc3C2=O)C(=O)N1 (centres unmarked) [Compound 58] | > 10000
31 | COc1cccc(CNC(=O)NCc2ccc3c(c2)C(=O)N(C2CCC(=O)NC2=O)C3)c1 (centres unmarked) [Compound 53] | > 10000

target: T1, Full length wild-type cereblon CRBN (Homo sapiens, UniProt Q96SW2); assay: Fluorescence polarization (FP) assay indicating cereblon binding; conditions: CRBN 80.0 nM, fluorescent probe 5 nM, FP measured after 12 hours; read-out: rFP IC50
T1 construct: Full length wild-type cereblon CRBN (80.0 nM, 10 μL) was incubated in assay buffer
T1 sequence (Q96SW2 whole entry): as the sequence (Q96SW2 whole entry) above
Procedure, shortened: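 Full-length wild-type human CRBN (80.0 nM) preincubated 30 min at room temperature with compound (12-point curve, 300-0.937 or 3000-9.3 nM) in HEPES pH 8.0, NaCl, TCEP, Tween 20. Thalidomide-based Cy5-type probe then added at 5 nM final; FP read after 12 h (ex 590, em 675 nm), normalized to DMSO, IC50 derived.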

Row | Structure (SMILES) | IC50 [nM]
32 | COCCNC(=O)NCc1ccc2c(c1)C(=O)N(C1CCC(=O)NC1=O)C2 (centres unmarked) [Compound 72] | 322
33 | O=C1CCC(N2Cc3ccc(CNC(=O)Nc4cccc(Cl)c4F)cc3C2=O)C(=O)N1 (centres unmarked) [Compound 33] | 591
34 | Cc1cccc(NC(=O)NCc2ccc3c(c2)C(=O)N(C2CCC(=O)NC2=O)C3)c1C (centres unmarked) [Compound 44] | 747
35 | O=C1CCC(N2Cc3ccc(CNC(=O)Nc4cccc(F)c4)cc3C2=O)C(=O)N1 (centres unmarked) [Compound 34] | 481
36 | O=C1CCC(N2Cc3ccc(CNC(=O)NCc4ccccc4)cc3C2=O)C(=O)N1 (centres unmarked) [Compound 24] | 1590
37 | O=C1CCC(N2Cc3ccc(CNC(=O)Nc4ccc(Cl)cc4)cc3C2=O)C(=O)N1 (centres unmarked) [Compound 2] | 254
38 | Cc1ccccc1NC(=O)NCc1ccc2c(c1)C(=O)N(C1CCC(=O)NC1=O)C2 (centres unmarked) [Compound 37] | 672
39 | Cc1cccc(CNC(=O)NCc2ccc3c(c2)C(=O)N(C2CCC(=O)NC2=O)C3)c1 (centres unmarked) [Compound 63] | 492
40 | O=C1CCC(N2Cc3ccc(CNC(=O)NCC4CCCCC4)cc3C2=O)C(=O)N1 (centres unmarked) [Compound 58] | 540
41 | COc1cccc(CNC(=O)NCc2ccc3c(c2)C(=O)N(C2CCC(=O)NC2=O)C3)c1 (centres unmarked) [Compound 53] | 364
